Laboratory results as given in US9394311B2, “Triazolo compounds as PDE10 inhibitors” (Hoffmann-La Roche Inc., priority 2012, dated 2016).
pIC50: −log10 of the molar value.

Each molecule was assayed against human PDE10A (Homo sapiens (Human), UniProt Q9Y233) (assay: human PDE10A full length Scintillation Proximity Assay (SPA)). Conditions: PDE10A full length enzyme, 50 nM cGMP / [3H]-cGMP substrate, 20 minutes at room temperature.
Type: biochemical
In short: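 Full-length human PDE10A with 50 nM cGMP plus 50 nM [3H]-cGMP in 20 mM HEPES pH 7.5, 10 mM MgCl2, 0.05 mg/ml BSA; 20 min at room temperature. Stopped with yttrium silicate SPA beads in zinc sulphate, scintillation counted; IC50 from concentration range.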

Sequence of human PDE10A (Q9Y233 other isoform, or with tags, fused parts or gaps): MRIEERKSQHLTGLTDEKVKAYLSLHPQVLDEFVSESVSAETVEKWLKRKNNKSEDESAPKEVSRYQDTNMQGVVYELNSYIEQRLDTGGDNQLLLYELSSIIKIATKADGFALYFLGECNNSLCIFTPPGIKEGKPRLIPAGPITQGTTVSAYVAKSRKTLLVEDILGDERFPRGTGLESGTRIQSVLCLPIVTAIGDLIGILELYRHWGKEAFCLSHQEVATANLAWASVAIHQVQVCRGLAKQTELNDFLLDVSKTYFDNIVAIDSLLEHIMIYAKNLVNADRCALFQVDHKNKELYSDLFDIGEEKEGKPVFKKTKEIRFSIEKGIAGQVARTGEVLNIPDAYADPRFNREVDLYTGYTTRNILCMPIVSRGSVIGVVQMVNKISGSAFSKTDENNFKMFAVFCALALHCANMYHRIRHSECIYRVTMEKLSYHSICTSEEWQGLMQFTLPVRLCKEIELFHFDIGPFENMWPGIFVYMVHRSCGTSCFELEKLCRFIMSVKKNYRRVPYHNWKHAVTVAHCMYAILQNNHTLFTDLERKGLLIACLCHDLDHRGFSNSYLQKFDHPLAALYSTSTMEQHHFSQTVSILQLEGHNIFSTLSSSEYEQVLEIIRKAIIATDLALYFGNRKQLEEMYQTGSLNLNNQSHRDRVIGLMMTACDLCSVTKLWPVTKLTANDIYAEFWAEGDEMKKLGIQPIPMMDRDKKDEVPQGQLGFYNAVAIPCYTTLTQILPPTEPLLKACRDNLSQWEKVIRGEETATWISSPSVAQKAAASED

Row | Structure (SMILES) | pIC50
1 | Cc1nc(C)n2nc(CCc3nc(N4CCCC4)nn3C)nc2c1Cl [Example 44, 8-Chloro-5,7-dimethyl-2-(2-(1-methyl-3-(pyrrolidin-1-yl)-1H-1,2,4-triazol-5-yl)ethyl)-[1,2,4]triazolo[1,5-c]pyrimidine] | 8.03
2 | CCn1nc(N2CCCC2)nc1/C=C/c1nc2nc(C)cc(C)n2n1 [Example 3, 2-[2-(2-Ethyl-5-pyrrolidin-1-yl-2H-[1,2,4]triazol-3-yl)-vinyl]-5,8-dimethyl-[1,2,4]triazolo[1,5-a]pyrimidine] | 6.69
3 | Cc1ncc(C)n2nc(CCc3nc(N4CCC[C@@H]4C)nn3C)nc12 [Example 100, 5,8-Dimethyl-2-{2-[2-methyl-5-((S)-2-methyl-pyrrolidin-1-yl)-2H-[1,2,4]triazol-3-yl]-ethyl}-[1,2,4]triazolo[1,5-a]pyrazine] | 8.26
4 | Cc1c(Cl)cc(S(C)(=O)=O)c2nc(CCc3nc(N4CCCC4)nn3C)nn12 [Example 73, 6-Chloro-8-methanesulfonyl-5-methyl-2-[2-(2-methyl-5-pyrrolidin-1-yl-2H-[1,2,4]triazol-3-yl)-ethyl]-[1,2,4]triazolo[1,5-a]pyridine] | 7.06
5 | Cc1ncc(C)n2nc(CC(C)c3nc(N4CCCC4)nn3C)nc12 (single isomer, unassigned; (-)) [Example 126, (−)-5,8-Dimethyl-2-(2-(1-methyl-3-(pyrrolidin-1-yl)-1H-1,2,4-triazol-5-yl)propyl)-[1,2,4]triazolo[1,5-a]pyrazine] | 6.49
6 | Cc1ncc(C)n2nc(CCc3nc(N4CC5CCC5C4)nn3C)nc12 (stereo not drawn) [Example 99, 2-{2-[5-(3-Aza-bicyclo[3.2.0]hept-3-yl)-2-methyl-2H-[1,2,4]triazol-3-yl]-ethyl}-5,8-dimethyl-[1,2,4]triazolo[1,5-a]pyrazine] | 6.56
7 | Cc1c(C#N)cc(C#N)c2nc(CCc3nc(N4CCCC4)nn3C)nn12 [Example 78, 5-Methyl-2-[2-(2-methyl-5-pyrrolidin-1-yl-2H-[1,2,4]triazol-3-yl)-ethyl]-[1,2,4]triazolo[1,5-c]pyridine-6,8-dicarbonitrile] | 7.51
8 | Cc1nc(C)n2nc(CCc3nc(N4CCCC4)nn3C)nc2c1C [Example 42, 5,7,8-Trimethyl-2-(2-(1-methyl-3-(pyrrolidin-1-yl)-1H-1,2,4-triazol-5-yl)ethyl)-[1,2,4]triazolo[1,5-c]pyrimidine] | 7.87
9 | CCn1nc(N2CCCC2)nc1CCc1nc2ccccc2nc1C [Example 33, 2-[2-(2-Ethyl-5-pyrrolidin-1-yl-2H-[1,2,4]triazol-3-yl)-ethyl]-3-methyl-quinoxaline] | 7.26
10 | CCn1nc(N2CCCC2)nc1CCc1nc2nc(C)cc(C)n2n1 [Example 4, 2-[2-(2-Ethyl-5-pyrrolidin-1-yl-2H-[1,2,4]triazol-3-yl)-ethyl]-5,7-dimethyl-[1,2,4]triazolo[1,5-a]pyrimidine] | 7.96
11 | Cc1cc(C)n2nc(CCc3nc(N4CCCC4)nn3C)nc2n1 [Example 24, 5,7-dimethyl-2-(2-(1-methyl-3-(pyrrolidin-1-yl)-1H-1,2,4-triazol-5-yl)ethyl)-[1,2,4]triazolo[1,5-a]pyrimidine] | 7.63
12 | Cc1cnc(C)n2nc(CCc3nc(N4CCCC4)nn3C)nc12 [Example 58, 5,8-Dimethyl-2-[2-(2-methyl-5-pyrrolidin-1-yl-2H-[1,2,4]triazol-3-yl)-ethyl]-[1,2,4]triazolo[1,5-c]pyrimidine] | 8.09
13 | Cc1cnc(C)n2nc(CCc3nc(N4CCC[C@H]4C)nn3C)nc12 [Example 113, 5,8-Dimethyl-2-{2-[2-methyl-5-((R)-2-methyl-pyrrolidin-1-yl)-2H-[1,2,4]triazol-3-yl]-ethyl}-[1,2,4]triazolo[1,5-c]pyrimidine] | 6.88
14 | Cc1ncc(C)n2nc(CCc3nc(N4CC[C@H](F)C4)nn3C)nc12 [Example 94, 2-{2-[5-((S)-3-Fluoro-pyrrolidin-1-yl)-2-methyl-2H-[1,2,4]triazol-3-yl]-ethyl}-5,8-dimethyl-[1,2,4]triazolo[1,5-a]pyrazin] | 6.91
15 | Cc1nc2ccccc2nc1/C=C/c1nc(N2CCCC2)nn1C [Example 15, 2-Methyl-3-[2-(2-methyl-5-pyrrolidin-1-yl-2H-[1,2,4]triazol-3-yl)-vinyl]-quinoxaline] | 6.98
